Each structure is given as a SMILES string.

For one assay, the target named is T1, CDK7/CyclinH/Mat1 (Homo sapiens, UniProt P50613).
T1 construct: purchased Carna Biosciences
Put plainly: LanthaScreen Eu Kinase Binding Assay, CDK7. Conditions: tracer 236, read-out: Affinity (Kd) CDK7. The method, boiled down:
(§1)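 TR-FRET competition binding with Alexa Fluor 647 tracer and Eu-anti-GST antibody; e.g. CDK2/Cyclin A 15 nM with tracer 236 60 nM (working solutions). Kinase buffer: HEPES 20 mM pH 8.0, MgCl2 10 mM, DTT 1 mM, Brij-35 0.01%; 8-point 1:3 series, 1 h at room temperature; Kd from sigmoidal dose-response curves.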
A general note: In TR-FRET formats the signal depends on donor and acceptor labels being close together.

The target in another assay is T2, CDK9/Cyclin K (Homo sapiens, UniProt P50750).
T2 construct: purchased Invitrogen
T2 sequence (P50750 whole entry): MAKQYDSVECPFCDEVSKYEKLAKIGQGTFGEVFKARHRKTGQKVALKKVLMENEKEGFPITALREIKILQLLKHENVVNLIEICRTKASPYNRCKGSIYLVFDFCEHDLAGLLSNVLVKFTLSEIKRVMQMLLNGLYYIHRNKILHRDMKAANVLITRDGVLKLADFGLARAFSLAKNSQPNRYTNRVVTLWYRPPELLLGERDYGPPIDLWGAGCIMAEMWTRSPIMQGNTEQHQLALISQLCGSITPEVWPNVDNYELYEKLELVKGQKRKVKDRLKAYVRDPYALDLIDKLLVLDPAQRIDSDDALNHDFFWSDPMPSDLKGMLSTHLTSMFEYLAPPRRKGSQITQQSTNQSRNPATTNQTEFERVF
T2 sequence (O75909 whole entry partner): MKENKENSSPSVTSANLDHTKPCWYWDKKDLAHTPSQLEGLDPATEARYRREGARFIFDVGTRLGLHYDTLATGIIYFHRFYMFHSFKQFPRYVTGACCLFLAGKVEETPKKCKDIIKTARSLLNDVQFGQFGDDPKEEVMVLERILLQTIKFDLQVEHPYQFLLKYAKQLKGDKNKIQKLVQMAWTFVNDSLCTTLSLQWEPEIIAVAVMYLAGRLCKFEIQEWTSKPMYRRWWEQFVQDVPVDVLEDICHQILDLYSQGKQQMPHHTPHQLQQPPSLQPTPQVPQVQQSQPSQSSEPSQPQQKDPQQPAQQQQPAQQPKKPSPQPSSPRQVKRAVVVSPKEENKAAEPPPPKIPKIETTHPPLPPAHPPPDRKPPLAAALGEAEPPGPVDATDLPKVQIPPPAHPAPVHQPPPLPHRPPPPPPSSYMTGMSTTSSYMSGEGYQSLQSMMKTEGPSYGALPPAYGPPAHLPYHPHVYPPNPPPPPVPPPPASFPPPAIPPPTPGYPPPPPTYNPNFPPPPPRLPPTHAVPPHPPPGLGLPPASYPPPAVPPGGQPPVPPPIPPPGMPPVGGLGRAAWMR
Put plainly: LanthaScreen Eu Kinase Binding Assay, CDK9/Cyclin K. Conditions: tracer 236, read-out: Affinity (Kd) CDK9/Cyclin K. The method, boiled down: as §1

For the next assay, the system named is MDAMB468 cells. Put plainly: Cell viability assay, MDAMB468 cells. It is filed as cell-based. Particulars: Homo sapiens, MDA-MB-468, 72 h, Cell Titer Glo. The protocol:
(§2) HeLa- or MDAMB468-Cells or MATU ADR, H460, DU145, CACO-2 or B16F10 cells were maintained in RPMI 1640 or McCoy's 5A cell culture medium+glutamine (PAN Biotech GmbH, Aidenbach, Germany; order no. P04-22100; P04-05500) supplemented with 10% fetal calf serum “Gold” (PAA Laboratories GmbH, Pasching, Austria; order no. A15-151) and grown at 37° C., 5% CO2. For the cell viability assay, cells were seeded with a density of 400 (Hela cells, DSMZ Braunschweig order no. ACC57) or 800 (MDAMB468 cells, ATCC order no. HTB-132) per well in 25 μL in 384-well plates (Greiner Bio-One, Frickenhausen, Germany; order no. 781080). After overnight incubation at 37° C./5% CO2, 25 nL or 75 nL compound were added to each sample well by using BIOMEK FXP Laboratory Automation Workstation (Beckman Coulter, USA). Wells with cells and 0.1% or 0.3% DMSO in culture medium were used as positive controls, wells with cells and 10 μM staurosporine in culture medium were used as negative controls. The cells were incubated with the compounds for 72 h at 37° C./5% CO2. For measurement of cell viability […] Cell Titer Glo reagent (Promega, Madison, USA; order no. G7573), 1:2 diluted with cell culture medium, was added to each well. The 384well-plates were placed for 2 min on an orbital microplate shaker and incubated for further 10 min at room temperature to stabilize the luminescence signal. Luminescence was measured by Envision Plate Reader (Perkin Elmer, USA). EC50 values were calculated with the software Excel Fit (IDBS, Guildford, UK) from 3-fold dilution series comprising at least 8 concentrations in duplicates.
A general note: In ATP-based viability assays light output follows the ATP content of the culture.

A further assay concerns the target T3, CDK9 (Homo sapiens, UniProt P50750).
T3 construct: purchased Invitrogen
Put plainly: Lance Ultra KinaSelect Assay, CDK9. Particulars: read-out: Inhibition (IC50) CDK9. Type of assay: biochemical. As to the method: This protocol describes how the Lance Ultra KinaSelect Assay was performed to determine half maximal inhibitory concentration (IC50) of compounds of general formula (I) and CDK/Cyclin complexes. The principle behind this enzymatic assay is based upon the phosphorylation of the ULight-Peptide Substrat. It is detected by using a specific EU-labeled anti-phospho peptide antibody. The binding of the Eu-labeled anti-phospho peptide antibody to the phosphorylated U Light labeled peptide gives rise to a FRET-signal. Binding of an inhibitor to the kinase prevents phosphorylation of the ULight-MBP Substrat, resulting in a loss of FRET.
The compounds of general formula (I) summarized in Table 5 were diluted from a 10 mM DMSO stock solution 1:10 in a total volume of 15 μL DMSO. This compound predilution was then serial diluted 1:3 over 8 steps in DMSO and briefly spun down. Each compound solution was now diluted 1:20 in Enzymatic Buffer (HEPES: 50 mM, pH: 7.5; MgCl2: 10 mM; EGTA: 1 mM; DTT: 2 mM; Tween-20: 0.01%), mixed thoroughly and spun down. For every sample, 2 μL of the diluted compound were mixed with 6 μL CDK/Cyclin/Substrat solution and […] in a well of a small volume 384 well plate (Corning Incorporated, Corning, N.Y., USA; order no. 3673). […] For positive controls, in each well 2 μL of DMSO solution (1% final DMSO assay concentration) was mixed with 6 μL CDK/Cyclin/Substrat (appropriate final concentration see Table 3) and 2 μL Tracer ATP solution (appropriate final concentration see Table 3). Positive and negative controls were calculated from at least 8 different sample wells. The 384 well plates were mixed in a Teleshaker plate mixer (Beckman Coulter, Brea, Calif., USA) at 2000 rpm for 40 sec, and incubated for 1 h at room temperature. Before reading, 10 μL detection buffer (Lance Detection Buffer 1×; EDTA: […]; Eu-Anti-P-MBP: see Table 3) was added. The FRET signal was measured at 340 nm excitation, 665 nm and 615 nm emission (for the kinase tracer and LanthaScreen Eu-AB, respectively) with an Envision spectrophotometer (Perkin Elmer, Waltham, Mass., USA) with 50 μs delay and 300 μs integration time. IC50 values were determined from the sigmoidal dose response curves with the software Quattro Workflow (Quattro GmbH, Munich, Germany).

A further assay concerns the target T4, CDK2/CyclinA (Homo sapiens, UniProt P24941).
T4 construct: purchased Proqinase
Put plainly: LanthaScreen Eu Kinase Binding Assay, CDK2. Particulars: tracer 236, read-out: Affinity (Kd) CDK2. The method, boiled down: as §1

The target in a further assay is T5, CDK9/Cyclin T1 (Homo sapiens, UniProt P50750).
T5 construct: purchased Invitrogen
T5 sequence (P50750 whole entry): as the sequence (P50750 whole entry) above
T5 sequence (O60563 whole entry partner): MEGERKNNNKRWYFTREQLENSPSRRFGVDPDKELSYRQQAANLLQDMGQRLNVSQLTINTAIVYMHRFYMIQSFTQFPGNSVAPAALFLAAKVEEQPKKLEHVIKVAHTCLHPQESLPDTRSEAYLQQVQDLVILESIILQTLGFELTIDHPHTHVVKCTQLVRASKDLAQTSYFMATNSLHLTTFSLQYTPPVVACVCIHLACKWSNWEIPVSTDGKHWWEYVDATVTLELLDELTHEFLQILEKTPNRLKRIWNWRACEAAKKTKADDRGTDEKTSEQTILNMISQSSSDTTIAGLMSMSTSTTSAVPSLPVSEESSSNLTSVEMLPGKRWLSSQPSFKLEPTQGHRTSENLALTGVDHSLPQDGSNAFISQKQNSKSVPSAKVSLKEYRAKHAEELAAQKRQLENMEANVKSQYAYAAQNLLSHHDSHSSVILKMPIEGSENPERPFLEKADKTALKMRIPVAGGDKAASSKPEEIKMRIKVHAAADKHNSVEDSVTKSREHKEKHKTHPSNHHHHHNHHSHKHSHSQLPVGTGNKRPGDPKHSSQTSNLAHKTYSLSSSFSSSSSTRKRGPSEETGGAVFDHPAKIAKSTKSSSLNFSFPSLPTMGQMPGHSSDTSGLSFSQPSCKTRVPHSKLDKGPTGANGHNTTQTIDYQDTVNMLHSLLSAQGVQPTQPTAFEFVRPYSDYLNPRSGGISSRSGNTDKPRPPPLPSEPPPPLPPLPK
Put plainly: LanthaScreen Eu Kinase Binding Assay, CDK9/Cyclin T1. Particulars: tracer 236, read-out: Affinity (Kd) CDK9/Cyclin T1. The method in brief:
as §1

A further assay deals with T6, CDK2/CycE (Homo sapiens, UniProt P24941).
T6 construct: GST; purchased ProQinase GmbH (Freiburg, Germany); host or cells: insect cells (Sf-9)
Put plainly: CDK2/CycE kinase assay (TR-FRET). Particulars: ATP 10 μM, values given in μM. Type of assay: biochemical. The source says:
CDK2/CycE-inhibitory activity of compounds of the present invention was quantified employing the CDK2/CycE TR-FRET assay as described in the following paragraphs.
Recombinant fusion proteins of glutathione S-transferase (GST) and human CDK2 and of GST and human CycE, expressed in insect cells (Sf-9) and purified by glutathion-sepharose affinity chromatography, were purchased from ProQinase GmbH (Freiburg, Germany). A biotinylated peptide biotin-Ttds-[…] (C-terminus in amide form), which can be purchased from e.g the company JERINI Peptide Technologies (Berlin, Germany), was used as a substrate for the kinase reaction.
For the assay, 50 nl of a 100-fold concentrated solution of the test compound in DMSO was pipetted into a well of a black low-volume 384-well microtiter plate (Greiner Bio-One, Frickenhausen, Germany), 2 μl of a solution of CDK2/CycE in aqueous assay buffer [50 mM Tris/HCl pH 8.0], 10 mM MgCl2, 1.0 mM dithiothreitol, 0.1 mM sodium ortho-vanadate, 0.01% (v/v) Nonidet-P40 (Sigma)] were added. The mixture was incubated at 22° C. for 15 min to allow pre-binding of the test compounds to the enzyme before the start of the kinase reaction. […] The resulting mixture was incubated at 22° C. for 25 minutes. The concentration of CDK2/CycE was adjusted depending on the activity of the enzyme lot and was chosen appropriately for measurements in the linear range of the assay. Typical concentrations were in the range of 130 ng/ml. The reaction was stopped by the addition of 5 μl of a solution of TR-FRET detection reagents (0.2 μM streptavidine-XL and 1 nM anti-RB(pSer807/pSer811)-antibody from BD Pharmingen [#558389] and 1.2 nM LANCE EU-W1024 labeled anti-mouse IgG antibody [Perkin-Elmer, product no. AD0077]) in an aqueous EDTA-solution (100 mM EDTA, 0.2% (w/v) bovine serum albumin in 100 mM HEPES/NaOH, pH 7.0).
The resulting mixture was incubated at 22° C. for one hour to allow the formation of a complex between the phosphorylated biotinylated peptide and the detection reagents. Subsequently, the amount of phosphorylated substrate was evaluated by measuring the resonance energy transfer from the Eu-chelate to the streptavidine-XL. Therefore, the fluorescence emissions at 620 nm and 665 nm after excitation at 350 nm were measured in a high time-resolved fluorometry (HTRF) reader, e.g. a Rubystar (BMG Labtechnologies, Offenburg, Germany) or a Viewlux (Perkin-Elmer). The ratio of the emissions at 665 nm and at […] was taken as a measure for the amounts of phosphorylated substrate. The data were normalised, i.e. enzyme reaction without inhibitor corresponds to 0% inhibition, and all other assay components in the absence of the enzyme correspond to 100% inhibition. IC50 values were calculated by a 4-parameter fit using in-house software.

The next assay deals with HeLa cells. Put plainly: Cell viability, HeLa cells. Type of assay: cell-based. Conditions: Homo sapiens. The protocol: as §2
Cultivated tumour cells (NCl-H460, human non-small cell lung carcinoma cells, ATCC HTB-177; DU 145, hormone-independent human prostate carcinoma cells, ATCC HTB-81; HeLa-MaTu, human cervical carcinoma cells, EPO-GmbH, Berlin; HeLa-MaTu-ADR, multidrug-resistant human cervical carcinoma cells, EPO-GmbH, Berlin; HeLa human cervical tumour cells, ATCC CCL-2; Caco-2 human colorectal carcinoma, ATCC HTB-37; B16F10 mouse melanoma cells, ATCC CRL-6475) were plated at a density of 5,000 cells/well (DU145, HeLa-MaTu-ADR), 3,000 cells/well (NCl-H460, HeLa-MaTu, HeLa), 1,500 cells/well (Caco-2), or 1,000 cells/well (B16F10) in a 96-well multititer plate in 200 μL of their respective growth medium supplemented with 10% fetal calf serum. After 24 hours, the cells of one plate (zero-point plate) were stained with crystal violet (see below), while the medium of the other plates was replaced by fresh culture medium (200 μl), to which the test substances were added in various concentrations (0 μM as well as in the range of 0.001 to 10 μM; the final concentration of the solvent dimethyl sulfoxide was 0.5%). The cells were incubated in the presence of test substances for 4 days. Cell proliferation was determined by staining the cells with crystal violet: The cells were fixed by adding 20 μl/measuring point of an 11% glutaric aldehyde solution at room temperature for 15 minutes. After three washing cycles of the fixed cells with water, the plates were dried at room temperature. The cells were stained by adding 100 μl/measuring point of a 0.1% crystal violet solution (pH 3.0). After three washing cycles of the stained cells with water, the plates were dried at room temperature. The dye was dissolved by adding 100 μl/measuring point of a 10% acetic acid solution. The extinction was determined by photometry at a wavelength of 595 nm. The change of cell number, in percent, was calculated by normalization of the measured values to the extinction values of the zero-point plate (equivalent to 0%) and the extinction of the untreated (0 μm) cells (equivalent to 100%). The IC50 values were determined by means of a 4 parameter fit using the company's own software.

T3 sequence (P50750 whole entry): as the sequence (P50750 whole entry) above
T1 sequence (P50613 whole entry): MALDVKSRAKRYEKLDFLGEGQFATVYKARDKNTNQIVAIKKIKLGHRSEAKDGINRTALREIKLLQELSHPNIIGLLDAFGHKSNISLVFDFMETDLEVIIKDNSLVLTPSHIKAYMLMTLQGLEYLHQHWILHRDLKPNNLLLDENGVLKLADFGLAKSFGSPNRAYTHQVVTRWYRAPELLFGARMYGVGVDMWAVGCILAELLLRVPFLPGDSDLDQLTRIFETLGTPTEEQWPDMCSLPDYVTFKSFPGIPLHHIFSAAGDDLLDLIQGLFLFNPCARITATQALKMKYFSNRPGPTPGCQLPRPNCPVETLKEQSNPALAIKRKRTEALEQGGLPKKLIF
T1 sequence (P51946 whole entry partner): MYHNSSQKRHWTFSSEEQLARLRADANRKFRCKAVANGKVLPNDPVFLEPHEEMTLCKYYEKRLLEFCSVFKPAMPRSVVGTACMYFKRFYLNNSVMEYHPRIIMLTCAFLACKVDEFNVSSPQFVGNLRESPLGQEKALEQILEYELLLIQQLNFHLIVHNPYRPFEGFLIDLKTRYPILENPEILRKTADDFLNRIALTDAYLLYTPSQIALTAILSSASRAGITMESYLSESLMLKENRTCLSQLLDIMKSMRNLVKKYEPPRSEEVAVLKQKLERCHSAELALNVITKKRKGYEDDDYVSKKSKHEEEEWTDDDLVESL
T1 sequence (P51948 whole entry partner): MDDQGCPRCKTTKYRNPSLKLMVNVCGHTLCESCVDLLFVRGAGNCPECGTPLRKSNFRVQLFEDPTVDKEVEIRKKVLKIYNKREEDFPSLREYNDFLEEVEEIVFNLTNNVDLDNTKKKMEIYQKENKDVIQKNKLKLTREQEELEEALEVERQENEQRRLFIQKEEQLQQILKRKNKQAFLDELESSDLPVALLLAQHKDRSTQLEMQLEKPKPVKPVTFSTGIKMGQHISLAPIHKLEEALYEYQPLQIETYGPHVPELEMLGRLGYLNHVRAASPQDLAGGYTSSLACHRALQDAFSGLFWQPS

The IC50 is the point on the concentration scale where inhibition reaches its midpoint. For `COc1ccccc1-c1ncnc(Nc2cccc(C(N)=O)c2)n1` [Compound E1, 3-[(4-(2-Methoxyphenyl)-1,3,5-triazin-2-yl)amino]benzamide], the Kd at CDK7/CyclinH/Mat1 was more than 10000 nM; on CDK9/Cyclin K, 301 nM; on CDK2/CyclinA, 2160 nM; at CDK9/Cyclin T1, 136 nM. Besides, the values for the IC50 in the assay on MDAMB468 cells and at CDK9 were 23000 nM and 837 nM, respectively.
With `COc1ccccc1-c1cc(Nc2cccc(CS(N)(=O)=O)c2)ncn1` [Ref1, C-{3-[6-(2-Methoxy-phenyl)-pyrimidin-4-ylamino]-phenyl}-methanesulfonamide, reference compound], the IC50 at CDK2/CycE worked out at 2.1 µM; in the assay with HeLa cells it was 3400 nM.

The record behind these values is US20130079345A1, “[…] ACTIVE DISUBSTITUTED TRIAZINE DERIVATIVES” (BAYER INTELLECTUAL PROPERTY GMBH, priority 2010, published 2013).
